Assay results taken from patent publication US20210254056A1, “IDENTIFICATION AND TARGETED MODULATION OF GENE SIGNALING NETWORKS” (CAMP4 THERAPEUTICS CORPORATION, priority 2017, published 2021).

System: hepatocytes
Experiment: RNA-seq of hepatocytes treated with Phase III failure compounds
Conditions: hepatocytes
Protocol: RNA-seq was performed to determine the effects of the compounds on hepatocytes.
Significance was determined by the criteria of FPKM≥0.5, a log 2(fold-change)≥1, and a […].

SMILES: CCC(CC)[C@H](NC(C)=O)[C@@H]1[C@H](O)[C@@H](C(=O)O)C[C@H]1NC(=N)N.O.O.O [peramivir (trihydrate), peramivir]
- RNA-seq results, GPD1 expression (gene GPD1): 0.37
- RNA-seq results: GPD1 expression (gene GPD1): 0
- RNA-seq results, GPHN expression (gene GPHN): −0.14
- RNA-seq results: GPHN expression (gene GPHN): 0.06
- RNA-seq results, GTPBP3 expression (gene GTPBP3): 0.32
- RNA-seq results: GTPBP3 expression (gene GTPBP3): 0.07
- RNA-seq results, GUSB expression (gene GUSB): −0.26
- RNA-seq results: GUSB expression (gene GUSB): 0.23
- RNA-seq results, GYG1 expression (gene GYG1): −0.32
- RNA-seq results: GYG1 expression (gene GYG1): 0.02
- RNA-seq results, GYS1 expression (gene GYS1): 0.05
- RNA-seq results: GYS1 expression (gene GYS1): 0.12
- RNA-seq results, GYS2 expression (gene GYS2): −0.03
- RNA-seq results: GYS2 expression (gene GYS2): −0.13
- RNA-seq results, H6PD expression (gene H6PD): 0.18
- RNA-seq results: H6PD expression (gene H6PD): −0.01
- RNA-seq results, H19 expression (gene H19): −0.21
- RNA-seq results: H19 expression (gene H19): 0.34
- RNA-seq results, HAL expression (gene HAL): −0.09
- RNA-seq results: HAL expression (gene HAL): −0.17
- RNA-seq results, HAX1 expression (gene HAX1): −0.12
- RNA-seq results: HAX1 expression (gene HAX1): 0.15
- RNA-seq results, HBA1 expression (gene HBA1): 1.07
- RNA-seq results: HBA1 expression (gene HBA1): 0.04
- RNA-seq results, HBB expression (gene HBB): 0.07
- RNA-seq results: HBB expression (gene HBB): −0.54
- RNA-seq results, HGD expression (gene HGD): −0.10
- RNA-seq results: HGD expression (gene HGD): −0.18
- RNA-seq results, HLA-B expression (gene HLA-B): 0.05
- RNA-seq results: HLA-B expression (gene HLA-B): 0.18
- RNA-seq results, HMBS expression (gene HMBS): −0.09
- RNA-seq results: HMBS expression (gene HMBS): 0
- RNA-seq results, HMGCR expression (gene HMGCR): −0.11
- RNA-seq results: HMGCR expression (gene HMGCR): −0.29
- RNA-seq results, HMGCS2 expression (gene HMGCS2): −0.21
- RNA-seq results: HMGCS2 expression (gene HMGCS2): −0.28
- RNA-seq results, HMOX1 expression (gene HMOX1): 0.22
- RNA-seq results: HMOX1 expression (gene HMOX1): 1.28
- RNA-seq results, HNF1A expression (gene HNF1A): 0.33
- RNA-seq results: HNF1A expression (gene HNF1A): 0.11
- RNA-seq results, HNF1B expression (gene HNF1B): −0.02
- RNA-seq results: HNF1B expression (gene HNF1B): −0.15
- RNA-seq results, HNF4A expression (gene HNF4A): 0.30
- RNA-seq results: HNF4A expression (gene HNF4A): −0.01
- RNA-seq results, HOGA1 expression (gene HOGA1): 0.80
- RNA-seq results: HOGA1 expression (gene HOGA1): 0.01
- RNA-seq results, HPD expression (gene HPD): 0.10
- RNA-seq results: HPD expression (gene HPD): 0.06
- RNA-seq results, HPGD expression (gene HPGD): −0.69
- RNA-seq results: HPGD expression (gene HPGD): −0.7
- RNA-seq results, HPS4 expression (gene HPS4): −0.04
- RNA-seq results: HPS4 expression (gene HPS4): 0.26
- RNA-seq results, HPS5 expression (gene HPS5): −0.12
- RNA-seq results: HPS5 expression (gene HPS5): −0.18
- RNA-seq results, HPS6 expression (gene HPS6): 0.31
- RNA-seq results: HPS6 expression (gene HPS6): 0.23
- RNA-seq results, HPX expression (gene HPX): −0.17
- RNA-seq results: HPX expression (gene HPX): 0.2
- RNA-seq results, HRAS expression (gene HRAS): −0.15
- RNA-seq results: HRAS expression (gene HRAS): 0.31
- RNA-seq results, HRSP12 expression (gene HRSP12): −0.47
- RNA-seq results: HRSP12 expression (gene HRSP12): −0.3
- RNA-seq results, HSD3B7 expression (gene HSD3B7): −0.05
- RNA-seq results: HSD3B7 expression (gene HSD3B7): 0.26
- RNA-seq results, HSD17B10 expression (gene HSD17B10): −0.09
- RNA-seq results: HSD17B10 expression (gene HSD17B10): 0.15
- RNA-seq results: HYLS1 expression (gene HYLS1): −0.60
- RNA-seq results: ID1 expression (gene ID1): 0.13
- RNA-seq results: IDH1 expression (gene IDH1): −0.29
- RNA-seq results: IDH2 expression (gene IDH2): −0.11
- RNA-seq results: IDUA expression (gene IDUA): 0.23
- RNA-seq results: IFIH1 expression (gene IFIH1): −0.40
- RNA-seq results: IFNAR2 expression (gene IFNAR2): −0.51
- RNA-seq results: IFT27 expression (gene IFT27): −0.11
- RNA-seq results: IFT80 expression (gene IFT80): 0.00
- RNA-seq results: IFT122 expression (gene IFT122): −0.15
- RNA-seq results: IFT140 expression (gene IFT140): 0.44
- RNA-seq results: IFT172 expression (gene IFT172): 0.36
- RNA-seq results: IGFALS expression (gene IGFALS): 0.33
- RNA-seq results: IKBKG expression (gene IKBKG): 0.48
- RNA-seq results: IL1RN expression (gene IL1RN): −0.20
- RNA-seq results: IL2RG expression (gene IL2RG): −0.08
- RNA-seq results: INSR expression (gene INSR): 0.01
- RNA-seq results: INVS expression (gene INVS): −0.15
- RNA-seq results: ISYNA1 expression (gene ISYNA1): 0.20
- RNA-seq results: ITGB3 expression (gene ITGB3): 0.02
- RNA-seq results: IYD expression (gene IYD): −0.15
- RNA-seq results: JAG1 expression (gene JAG1): 0.14
- RNA-seq results: JAK2 expression (gene JAK2): −0.26
- RNA-seq results: KCTD7 expression (gene KCTD7): 0.26
- RNA-seq results: KCTD11 expression (gene KCTD11): 0.53
- RNA-seq results: KHK expression (gene KHK): 0.13
- RNA-seq results: KIAA0586 expression (gene KIAA0586): −0.32
- RNA-seq results: KMT2D expression (gene KMT2D): 0.57
- RNA-seq results: KPTN expression (gene KPTN): 0.03
- RNA-seq results: KRIT1 expression (gene KRIT1): −0.32
- RNA-seq results: KRT18 expression (gene KRT18): 0.14
- RNA-seq results: KYNU expression (gene KYNU): −0.28
- RNA-seq results: LAMB2 expression (gene LAMB2): 0.14
- RNA-seq results: LCAT expression (gene LCAT): 0.18
- RNA-seq results: LDHB expression (gene LDHB): −0.23
- RNA-seq results: LDLR expression (gene LDLR): 0.23
- RNA-seq results: LDLRAP1 expression (gene LDLRAP1): 0.03
- RNA-seq results: LIPC expression (gene LIPC): −0.23
- RNA-seq results: LIPT1 expression (gene LIPT1): −0.63
- RNA-seq results: LMNB2 expression (gene LMNB2): 0.36
- RNA-seq results: LPA expression (gene LPA): 0.04
- RNA-seq results: LPIN1 expression (gene LPIN1): −0.08
- RNA-seq results: LPIN2 expression (gene LPIN2): 0.08
- RNA-seq results: LRBA expression (gene LRBA): −0.14
- RNA-seq results: LRP5 expression (gene LRP5): 0.14
- RNA-seq results: LYRM4 expression (gene LYRM4): −0.40
- RNA-seq results: LYST expression (gene LYST): −0.05
- RNA-seq results: MAN1A1 expression (gene MAN1A1): −0.36
- RNA-seq results: MAN2B1 expression (gene MAN2B1): 0.14
- RNA-seq results: MAOB expression (gene MAOB): −0.07
- RNA-seq results: MAT1A expression (gene MAT1A): 0.14
- RNA-seq results: MBL2 expression (gene MBL2): −0.25
